In publication PMC7796460, “Relation of Metal-Binding Property and Selective Toxicity of 8-Hydroxyquinoline Derived Mannich Bases Targeting Multidrug Resistant Cancer Cells” (Cancers, 2021):
Where two headings read alike, the source gives them in different places.

Key:
A431 cells = test: MTT viability assay, A431; format: cell-based; details: Homo sapiens, A-431, 72 h, MTT 72 h
Description: (§1) MDCK II canine kidney cells, A431 epidermoid carcinoma cells, the human uterine sarcoma cell lines MES-SA and the doxorubicin selected MES-SA-Dx5 were obtained from ATCC (MDCK II: No. CRL-2936™, A431: No. CRL-1555™, MES-SA: No. CRL-1976™, MES-SA/Dx5: No. CRL-1977™). ABCB1 was expressed in A431 and MES-SA cells using lentiviral transduction. The human cervix carcinoma cell line KB-3-1 and the vinblastine selected KB-v1were kind gifts from Dr. Michael M. Gottesman, National Institutes of Health. The phenotype of the resistant cells was verified using cytotoxicity assays. MDCK-B1 and MDCK-MM were established by the Sleeping Beauty transposon-based gene delivery system. OVCAR-8 and NCI-ADRres cells (obtained from the Division of Cancer Treatment and Diagnosis (DCTD) Tumor Repository (National Cancer Institute, Frederick, MD, USA)) were cultivated in RPMI-1640 (Sigma Aldrich, Budapest, Hungary), and other cell lines were cultivated in Dulbecco’s Modified Eagle Medium (DMEM, Sigma Aldrich, Budapest, Hungary), supplemented with 10% fetal bovine serum, 5 mM glutamine, and 50 unit/mL penicillin and streptomycin (Life Technologies, Carlsbad, CA, USA). All cell lines were cultivated at 37 °C, 5% CO2.
(§2) MTT viability assays were performed as described earlier with minor modifications. Briefly, cells were seeded into 96-well tissue culture plates (Sarstedt, Newton, NC, USA/Orange, Braine-l’Alleud, Belgium) at a density of 5000 cells/well and allowed to attach overnight. Test compounds were added to achieve the required final concentration in a final volume of 100 µL per well. After an incubation period of 72 h, the supernatant was removed and fresh medium containing the MTT reagent (0.083 mg/mL) was added. Incubation with MTT at 37 °C was terminated after 1 h by removing the supernatant and lysing the cells with 100 µL DMSO per well. Viability of the cells was measured spectrophotometrically based on the absorbance values at 540 nm using either a Perkin Elmer Victor X3 or an EnSpire microplate reader. Data were background corrected by subtraction of the signal obtained from unstained cell lysates and normalized to untreated cells. Curves were fitted by Prism software (GraphPad Software Inc., San Diego, CA, USA) using the sigmoidal dose-response model (comparing variable and fixed slopes). […] Significance was calculated using unpaired t-tests; results are given as *: p ≤ 0.05, **: p ≤ 0.01, ***: p ≤ 0.001, ****: p ≤ 0.0001.

MES-SA/B1 cells = test: TXRF intracellular iron levels, MES-SA/B1; format: cell-based, human; details: for Intracellular iron levels: MES-SA/B1, 25 µM holo-transferrin 4 h, then 5 µM ligand 8 h (Figure 4A)
Description: Cells were seeded to 6-well plates in a density of 1.5 Mio cells/well and allowed to attach overnight. Following a washing step with phosphate buffered saline (PBS), cells were incubated in serum free DMEM. For the iron-level measurements, cells were preloaded with 25 µM holo-transferrin for 4 h and, after a washing step with serum free DMEM, cells were incubated with 5 µM of each ligand for 8 h. For the detection of copper levels, cells were treated with 1 µM of the ligands in the presence of 5 µM CuCl2 for 4 h. Following incubation, cells were harvested upon trypsination, washed twice with PBS, counted and the resulting pellets were digested in 20 μL of 30% H2O2, 80 μL of 65% HNO3. 10 μL of 15 µg/mL Ga(NO3)3 (in nitric acid) was added as an internal standard upon digestion for 24 h at room temperature. From the resulting solutions, 2 μL were pipetted on the quartz reflectors used for total-reflection X-ray fluorescence (TXRF) analysis. For the determination of the intracellular Cu content, the TXRF method was used as previously reported. Briefly, all determinations were performed on an Atomika 8030C TXRF spectrometer (Atomika Instruments GmbH, Oberschleissheim, Germany). The stock solution of 1000 mg/L Ga was purchased from Merck (Darmstadt, Germany). The Kα line used for determination of Fe and Cu were at 6.403 and 8.047 keV. […] Significance was calculated using unpaired t-tests; results are given as *: p ≤ 0.05, **: p ≤ 0.01, ***: p ≤ 0.001, ****: p ≤ 0.0001.
Figure 4 Effect of the compounds on intracellular metal levels. (A) Iron levels of MES-SA (open columns) and MES-SA/B1 cells in absence (dark red squared columns) and presence of Pgp inhibitor Tariquidar (bright red squared columns). Cells were loaded with 25 µM holo-transferrin (4 h), followed by an incubation (8 h) without (ctr) or with 5 µM of ligands Q-1, Q-2, Q-3, and Q-4. […] (B) Cellular copper levels measured following a 4 h co-administration of compounds Q-1, Q-2, Q-3, and Q-4 (1 µM) and CuCl2 (5 µM) in MES-SA (open columns), MES-SA/Dx5 (filled columns) and MES-SA-B1 (squared columns) cells. Significance is given as *: p ≤ 0.05, **: p ≤ 0.01, ***: p ≤ 0.001.

MES-SA/Dx5 cells = test: MTT viability assay, MES-SA/Dx5; format: cell-based, human; details: for IC50: Homo sapiens, MES-SA/Dx5, Table S1, calculated as ligand equivalents, read-out: IC50 Dx5; for IC50 / SR: absence of TQ; for Effect of co-administration of CuCl2 on toxicity: MDR MES-SA/Dx5, increasing concentrations of CuCl2, MTT 72 h (Figure 2I-L); for Effect of co-incubation with iron(III) on cytotoxicity: MES-SA/Dx5, increasing concentrations of FeCl3, MTT 72 h (Figure 2A-D); for SR: Table S1, IC50 Pgp negative divided by Pgp positive cells; for SR_TQ: Table S1, presence of 1 µM TQ; for Selective toxicity in the presence of 50 µM copper(II): MES-SA vs. MES-SA/Dx5, 50 µM copper(II); for MDR-selective toxicity with excess iron ions: MES-SA vs. MES-SA/Dx5, co-administered FeCl3
Description: as §1, §2

MES-SA cells = test: MTT viability assay, MES-SA; format: cell-based, human; details: for IC50: Homo sapiens, MES-SA; for Effect of co-administration of CuCl2 on toxicity: parental MES-SA, increasing concentrations of CuCl2, MTT 72 h (Figure 2I-L)
Description: as §1, §2

MDCK cells = test: MTT viability assay, MDCK; format: cell-based, canine; details: Canis lupus familiaris, 72 h, MTT 72 h
Description: as §1, §2

[1] = presence of 1 µM Tariquidar (values in brackets)
[2] = IC50 MES-SA vs. MES-SA/Dx5, absence of Tariquidar
[3] = IC50 MES-SA vs. MES-SA/Dx5, presence of 1 µM Tariquidar (brackets)
[4] = Table 2, value in brackets (Tariquidar as in Table 1)
[5] = Table 2, value outside brackets
[6] = MTT 72 h, absence of Tariquidar, read-out: IC50 MES-SA
[7] = Table 2, value outside brackets, read-out: MES-SA (toxicity, Table 2)

Compound	IC50 (A431 cells; absence of Tariquidar) [µM]	IC50 (A431 cells; [1]) [µM]	Intracellular iron levels (MES-SA/B1 cells)	IC50 (MES-SA/Dx5 cells) [µM]	SR MES-SA/Dx5 (MES-SA/Dx5 cells; [2])	SR MES-SA/Dx5 (MES-SA/Dx5 cells; [3])	Effect of co-administration of CuCl2 on toxicity (MES-SA/Dx5 cells)	Effect of co-incubation with iron(III) on cytotoxicity (MES-SA/Dx5 cells)	SR MES-SA/Dx5 (Table 2) (MES-SA/Dx5 cells; [4])	SR MES-SA/Dx5 (Table 2) (MES-SA/Dx5 cells; [5])	SR (MES-SA/Dx5 cells)	SR_TQ (MES-SA/Dx5 cells)	IC50 (MES-SA cells; [6]) [µM]	IC50 (MES-SA cells; [7]) [µM]	Effect of co-administration of CuCl2 on toxicity (MES-SA cells)	IC50 (MDCK cells; absence of Tariquidar) [µM]	IC50 (MDCK cells; [1]) [µM]	Intracellular iron depletion in the presence of the Pgp inhibitor TQ (MES-SA/B1 cells; MES-SA/B1, 5 µM ligand 8 h, with Tariquidar)	Selective toxicity in the presence of 50 µM copper(II) (MES-SA/Dx5 cells)	MDR-selective toxicity with excess iron ions (MES-SA/Dx5 cells)
Oc1cccc2cccnc12 [Compound Q-1, 8-Hydroxyquinoline]	2.35 ± 0.92	2.9	negligible	2.46 ± 0.69	1.70	1.73	increased the toxicity	did not influence the cytotoxicity	1.73	1.70	1.70	1.73	4.19 ± 0.74	4.19 ± 0.74	increased the toxicity	3.27 ± 1.24	3.08	–	–	–
Oc1c(CNCc2ccccc2F)cc(Cl)c2cccnc12 [Compound Q-4, 5-chloro-7-((2-fluorobenzylamino)methyl)quinolin-8-ol]	5.82 ± 1.15	4.54	marked, selective iron depletion	0.2 ± 0.06	13.68	0.68	not further sensitized	selectively protected MES-SA/Dx5 cells	0.68	13.68	13.68	0.68	2.75 ± 0.46	2.75 ± 0.46	selective increase in sensitivity	4.55 ± 1.53	5.92	abrogated	completely abrogated	significantly reduced
Oc1c(CN2CCCCC2)ccc2cccnc12 [Compound Q-3, 7-(piperidin-1-ylmethyl)quinolin-8-ol]	3.91 ± 0.83	4.09	drop of intracellular iron levels below baseline levels	0.86 ± 0.26	4.75	0.95	not further sensitized	selectively protected MES-SA/Dx5 cells	0.95	4.75	4.75	0.95	4.11 ± 1.2	4.11 ± 1.2	selective increase in sensitivity	7.61 ± 3.06	10.2	–	completely abrogated	significantly reduced
Oc1c(CN2CCOCC2)ccc2cccnc12 [Compound Q-2, 7-(morpho-lino-methyl)quinolin-8-ol]	3.31 ± 1.61	3.18	–	3.27 ± 0.39	2.13	0.85	increased the toxicity	selectively protected MES-SA/Dx5 cells	0.85	2.13	2.13	0.85	6.97 ± 1.75	6.97 ± 1.75	increased the toxicity	9.15 ± 3.51	11.1	–	–	–
